In the supplement of paper PMC3493320:

System: NCI-H295R
Assay: IC50 (antiproliferative, ATP content)
Settings: 48 h
Summary of the method: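 Cell viability of adrenocortical carcinoma cells was assessed as ATP by CellTiter-Glo luminescence. Cells at 1500 per well in 1536-well plates, in serum-free DMEM with ITS, received compounds by pin transfer at 8 final concentrations (0.6 nM–46 µM) after overnight culture and were then held 48 h at 37 °C, 5% CO2. IC50 was calculated by logistic fitting against vehicle and positive-control wells, compounds with no concentration response being recorded as above the top dose.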

IC50 [µM] | SMILES
> 46 | Cc1scc2c1N(C(=O)CN1CCN(C)CC1)c1ccccc1NC2=O
> 46 | CC(O)CCCCn1c(=O)c2c(ncn2C)n(C)c1=O (stereo not given)
> 46 | O=C3N1/C(=C(/Cl)CS[C@@H]1[C@@H]3NC(=O)[C@H](N)c2ccccc2)C(O)=O
> 46 | CCN(CC)CCNC(=O)c1ccc(N)cc1
> 46 | O=c1ccn(C2OC(COP(=O)(O)OC3C(CO)OC(n4ccc(=O)[nH]c4=O)C3O)C(O)C2O)c(=O)[nH]1 (stereo not given)
> 46 | COC(=O)c1ccccc1O
> 46 | CCC[C@@H]1C[C@@H](C(=O)N[C@@H]([C@H]2O[C@H](SC)[C@H](O)[C@@H](O)[C@H]2O)[C@H](C)Cl)N(C)C1.Cl
> 46 | C[Se]CC[C@H](N)C(=O)O
> 46 | CCC(=O)OCC(=O)[C@@]1(OC(=O)CC)[C@H](C)C[C@H]2[C@H]3[C@H]([C@@H](O)C[C@@]21C)[C@@]1(C)C=CC(=O)C=C1C[C@H]3Cl
> 46 | [NH2][Pt]1([NH2])[O]CC(=O)[O]1
> 46 | CN1CCN(c2cc3c(nn2)Oc2ccccc2N3C)CC1
> 46 | CN(C)CC\C2=C\Nc1ccc(cc12)Cn3cncn3
> 46 | CN(C)CCc1c[nH]c2ccc(C[C@H]3COC(=O)N3)cc12
> 46 | C[C@@H]1O[C@@H](OC[C@H]2O[C@@H](Oc3c(-c4ccc(O)c(O)c4)oc4cc(O)cc(O)c4c3=O)[C@H](O)[C@@H](O)[C@@H]2O)[C@H](O)[C@H](O)[C@H]1O
> 46 | O=C(O)C1CCCN1 (stereo not given)
> 46 | CC1=C(CC(=O)O)c2cc(F)ccc2/C1=C\c1ccc(S(C)=O)cc1 (stereo not given)
> 46 | CC(=O)[C@H]2CC[C@H]3[C@@H]4\C=C/C1=C/C(=O)CC[C@@]1(C)[C@@H]4CC[C@]23C
> 46 | CCNC(=O)NCc1cccc(Cl)c1
> 46 | O=C(O)c1ccc(OCCn2ccnc2)cc1
> 46 | O=C(CCCN1CC=C(n2c(=O)[nH]c3ccccc32)CC1)c1ccc(F)cc1
> 46 | Cl.O=C(CCCN1CCC(O)(c2cccc(C(F)(F)F)c2)CC1)c1ccc(F)cc1
> 46 | CCCCC/C=C\C/C=C\C/C=C\CCCCC(=O)O
> 46 | COc1ccc(CCN(C)CCCC(C#N)(c2ccc(OC)c(OC)c2)C(C)C)cc1OC (stereo not given)
> 46 | Nc1nc(=O)n([C@@H]2CS[C@H](CO)O2)cc1F
> 46 | CCCCC/C=C\C/C=C\CCCCCCCC(=O)OCC

IC50 [µM] | SMILES
> 46 | Cl[C@]1([C@](C)2C=C3)[C@@H](O)C[C@@]([C@]([C@@](CO)=O)(O)[C@H]4C)(C)[C@](C4)([H])[C@@]([H])1CCC2=CC3=O
> 46 | Cc1cc(NC(=O)C2=C(O)c3ccccc3S(=O)(=O)N2C)no1
> 46 | CO
> 46 | F[C@@]([C@](C[C@@H]5F)([H])[C@@](C4)([H])[C@@]2(C)[C@@]1([C@](COC(C)=O)=O)[C@]4([H])OC(C)(C)O1)([C@@H](O)C2)[C@](C=C3)(C)C5=CC3=O
> 46 | CCC(Cc1c(I)cc(I)c(O)c1I)C(=O)O (stereo not given)
> 46 | O.O=C(O)[C@@H]1[C@H]2C[C@H]3c4[nH]c5ccccc5c4CCN3C[C@@H]2CC[C@@H]1O
> 46 | CC[N+](CC)(CC)CCOc1cccc(OCC[N+](CC)(CC)CC)c1OCC[N+](CC)(CC)CC.[I-].[I-].[I-]
> 46 | CC(=C(CCO)SSC(CCO)=C(C)N(C=O)Cc1cnc(C)nc1N)N(C=O)Cc1cnc(C)nc1N
> 46 | C=C1[C@@H]2CC[C@@H](C2)C1(C)C
> 46 | CC[C@H](C)C(=O)O[C@H]1CCC=C2C=C[C@H](C)[C@H](CC[C@@H]3C[C@@H](O)CC(=O)O3)[C@H]21
> 46 | C=CC[N+]1([C@H]2C[C@H]3[C@@H]4CC[C@H]5C[C@H](O)[C@@H](N6CCOCC6)C[C@]5(C)[C@H]4CC[C@]3(C)[C@H]2OC(C)=O)CCCC1.[Br-]
> 46 | C[Se]CCC(N)C(=O)O (stereo not given)
> 46 | CC(=O)Oc1cc(C(C)C)c(OCCN(C)C)cc1C.Cl
> 46 | O=C(O)CCc1nc2ccccc2[nH]1
> 46 | C/C(=N\Cc1ccccc1)c1ccccc1O
> 46 | CC(C)CCOC(=O)c1ccc(N(C)C)cc1
> 46 | CC(C)NCC(O)c1ccc(O)c(O)c1 (stereo not given)
> 46 | CO[C@H]1C[C@@H]2CC[C@@H](C)[C@@](O)(O2)C(=O)C(=O)N2CCCC[C@H]2C(=O)O[C@H]([C@H](C)C[C@@H]2CC[C@@H](OC(=O)C(C)(CO)CO)[C@H](OC)C2)CC(=O)[C@H](C)/C=C(\C)[C@@H](O)[C@@H](OC)C(=O)[C@H](C)C[C@H](C)/C=C/C=C/C=C/1C
> 46 | CO/N=C(\C(=O)N[C@@H]1C(=O)N2C(C(=O)O)=C(CSc3cnns3)CS[C@H]12)c1csc(N)n1.Cl
> 46 | O=[C@](O)[C@@]3(C)[C@@]1([H])[C@@](CCC3)(C)[C@]2([H])C(C=[C@@]([C@@H](C)C)CC2)=CC1
> 46 | O=C(C3)C(C(O)=CC(O[C@H]4[C@H](O)[C@@H](O)[C@H](O)[C@@H](CO[C@H]5[C@H](O)[C@H](O)[C@@H](O)[C@H](C)O5)O4)=C2)=C2O[C@@H]3[C@@]1=CC(O)=C(OC)C=C1
> 46 | Cl.Cl.c1ccc(CNCCNCc2ccccc2)cc1
> 46 | CC(=O)Oc1ccccc1C(=O)O
> 46 | NCC(O)CC(=O)O (stereo not given)
> 46 | CCCCCCCCCCCCCCCCCCCCCCO

IC50 [µM] | SMILES
> 46 | O=C1[O][Bi]([OH])[O]c2ccccc21
> 46 | CN[C@@H]1[C@@H](O)[C@@H](O[C@@H]2[C@H](O)[C@H](O[C@H]3OC(CN)=CC[C@H]3N)[C@@H](N)C[C@H]2N)OC[C@]1(C)O
> 46 | C[C@](N)(Cc1ccc(O)c(O)c1)C(=O)O.C[C@](N)(Cc1ccc(O)c(O)c1)C(=O)O.O.O.O
> 46 | O=C(CS(=O)Cc1ccco1)NC/C=C\COc1cc(CN2CCCCC2)ccn1 (stereo not given)
> 46 | CO[C@H]1C=CO[C@@]2(C)Oc3c(C)c(O)c4c(c3C2=O)C2=NC3(CCN(CC(C)C)CC3)NC2=C(NC(=O)/C(C)=C\C=C\[C@H](C)[C@H](O)[C@@H](C)[C@@H](O)[C@@H](C)[C@H](OC(C)=O)[C@@H]1C)C4=O
> 46 | Nc1ccc(S(=O)(=O)Nc2ccccc2)cc1
> 46 | O=C1c2c(O)cccc2Cc2cccc(O)c21
> 46 | CN(C(=O)CN(CCO)CC(=O)N(C)C(C)(C)Cc1ccccc1)C(C)(C)Cc1ccccc1
> 46 | IC(I)I
> 46 | C[C@H](N)[C@H](O)c1cccc(O)c1.O=C(O)[C@@H](O)[C@@H](O)C(=O)O
> 46 | O=C(CCCN1CCN2CCCC2C1)c1ccc(F)cc1 (stereo not given)
> 46 | O=Cc1ccccc1C=O
> 46 | O=[C@](N[C@H]2C[C@@H]2[C@]3=CC=CC=C3)[C@H]1NC(CC1)=O
> 46 | c1ccc2[nH]c(-c3cscn3)nc2c1
> 46 | O=[C@](C)[C@@H]3[C@](CC2)(C)[C@](CC3)([H])[C@@]1([H])[C@@]2([H])[C@](CC[C@H](O)C4)(C)C4=CC1
> 46 | [O]=[Bi][O]C(=O)[O][Bi]=[O]
> 46 | O=C1C2CC3CC1CC(O)(C3)C2
> 46 | CN1CCN(c2cc3c(cc2F)c(=O)c(C(=O)O)cn3-c2ccc(F)cc2)CC1.Cl
> 46 | OC[C@H]1O[C@@H]2O[C@H]3[C@H](O)[C@@H](O)[C@@H](O[C@H]4[C@H](O)[C@@H](O)[C@@H](O[C@H]5[C@H](O)[C@@H](O)[C@@H](O[C@H]6[C@H](O)[C@@H](O)[C@@H](O[C@H]7[C@H](O)[C@@H](O)[C@@H](O[C@H]8[C@H](O)[C@@H](O)[C@@H](O[C@H]1[C@H](O)[C@H]2O)O[C@@H]8CO)O[C@@H]7CO)O[C@@H]6CO)O[C@@H]5CO)O[C@@H]4CO)O[C@@H]3CO
> 46 | C#C[C@]1(O)CC[C@H]2[C@@H]3CCC4=C(CCC(=O)C4)[C@H]3CC[C@@]21C
> 46 | CN(C)CCCSc1ccccc1NC(=O)/C=C/c1ccccc1
> 46 | COc1cc(OC)c(C(=O)CCCN2CCCC2)c(OC)c1.Cl
> 46 | O=C([O-])c1cc(O)c2c3nc4ccccc4oc-3cc(=O)c2n1.[Na+]

SMILES | IC50 [µM]
CC(C)CC(N(C)C)C1(c2ccc(Cl)cc2)CCC1.Cl (stereo not given) | > 46
COc1cc2c(cc1OC)C1CC(=O)C(CC(C)C)CN1CC2 (stereo not given) | > 46
C[N+]1(C)[C@@H]2CC[C@H]1C[C@@H](OC(=O)C(CO)c1ccccc1)C2.O=[N+]([O-])[O-] (stereo not given in full) | > 46
N#Cc1nn(-c2c(Cl)cc(C(F)(F)F)cc2Cl)c(N)c1S(=O)C(F)(F)F (stereo not given) | > 46
COc1ccc2c(c1OC)CN1CCc3cc4c(cc3C1C2)OCO4 (stereo not given) | > 46
CCC(C(=O)OCCOCCN(CC)CC)c1ccccc1.O=C(O)CC(O)(CC(=O)O)C(=O)O (stereo not given) | > 46
N=C(N)NCC1COC2(CCCCC2)O1.N=C(N)NCC1COC2(CCCCC2)O1.O=S(=O)(O)O (stereo not given) | > 46
C[N@@+]1([O-])[C@@H]2CC[C@H]1C[C@@H](OC(=O)C(CO)c1ccccc1)C2 (stereo not given in full) | > 46
CCCN1C[C@H](CSC)C[C@@H]2c3cccc4[nH]cc(c34)C[C@H]21.CS(=O)(=O)O | > 46
O=C(C1=C2CCCC1)N(COC([C@H]3C([C@@H]3/C=C(C)\C)(C)C)=O)C2=O | > 46
CC(C)NCC(O)c1ccccc1Cl.Cl (stereo not given) | > 46
O=C([C@H]([C@]4=CC=CC=C4)CO)O[C@@H]1C[C@@H]3[C@@H]2[C@@H](O2)[C@@H]([N@+]([O-])3C)C1.Br | > 46
Oc1ccc2[nH]cc(CCCCN3CC=C(c4ccccc4)CC3)c2c1 | > 46
O=[C@@](OC)[C@H](C2=CC=CC=C2Cl)N1CC(C=CS3)=C3CC1.O=S(O)(O)=O | > 46
CC[N+](C)(CC)CCOC(=O)C(O)(c1ccccc1)c1ccccc1.[Br-] | > 46
O[C@H]1[C@H]2[C@H](O)CCCN2C[C@H]1O | > 46
CCN(CC)CCCC(C)Nc1ccnc2cc(Cl)ccc12.O=P(O)(O)O.O=P(O)(O)O (stereo not given) | > 46
